# From patent EP0044212B1, “Herbicidal o-alkylsulfonyloxy- and o-alkylsulfonylamino-benzenesulfonamides” (E.I. DU PONT DE NEMOURS AND COMPANY, priority 1980, dated 1982)
# What was measured:
# [1] = tested on: Morningglory; assay: Test F over-the-top soil/foliage treatment; assay type: in vivo, Ipomoea hederacea; details: soil/foliage spray; 0.06 kg/ha; ~14 days
# Procedure: (§1) The test chemicals, dissolved in a non-phytotoxic solvent, were applied in an overall spray to the foliage and surrounding […] of selected plant species. […] Approximately fourteen days after treatment, all species were visually compared to untreated controls and rated for response to treatment.
# (§2) All plant species were seeded in Woodstown sandy loam soil and grown in a greenhouse. The following species were grown in soil contained in plastic pots (25 cm diameter by 13 cm deep): soybeans, cotton, alfalfa, corn, rice, wheet, sorghum, velvetleaf (Abutilon theophrasti), sesbania (Sesbania exaltata), Cassia (Cassia tora), morningglory (Ipomoea hederacea), jimsonweed (Datura stramonium), cocklebur (Xanthium pensylvanicum), crabgrass (Digitaria spp.), nutsedge (Cyperus rotundus), barnyardgrass (Echinochloa crusgalli), giant foxtail (Setaria faberii) and wild oats (Avena fatua). The following species were grown in soil in a paper cup (12 cm diameter by 13 cm deep): sunflower, sugarbeets, and mustard. All plants were sprayed approximately 14 days after planting.
# [2] = tested on: Pigweed; assay: Test B pre-emergence on Fallsington silt loam; assay type: in vivo, Amaranthus retroflexus; details: 0.03 kg/ha, 28 days
# Excerpt: (§3) Two plastic bulb pans were filled with fertilized and limed Fallsington silt loam soil. One pan was planted with corn, sorghum, Kentucky bluegrass and several grassy weeds. The other pan was planted with cotton, soybeans, purple nutsedge (Cyperus rotundus), and several broadleaf weeds. The following grassy and broadleaf weeds were planted: crabgrass (Digitaria sanguinalis), barnyardgrass (Echinochloa crusgalli), wild oats (Avena fatua), johnsongrass (Sorghum halepense), dallisgrass (Paspalum dilatatum), giant foxtail (Setaria faberii), cheatgrass (Bromus secalinus), mustard (Brassica arvensis), cocklebur (Xanthium pensylvanicum), pigweed (Amaranthus retroflexus), morningglory (Ipomoea hederacea), cassia (Cassia tora), teaweed (Sida spinosa), velvetleaf (Abutilon theophrasti), and jimsonweed (Datura stramonium). A 12.5 cm diameter plastic pot was also filed with prepared soil and planted with rice and wheat. Another 12.5 cm pot was planted with sugarbeets. The above four containers were treated pre- emergence with several test compounds within the scope of the invention.
# (§4) Twenty-eight days after treatment, the plants were evaluated and visually rated for response to the chemical treatments utilizing the rating system described previously for Test A. The data are summarized in Table B.
# [3] = tested on: Wheat; assay: Test C pre-emergence on Fallsington silt loam soil; assay type: in vivo; details: 0.06 kg/ha, 28 days
# Excerpt: The high herbicidal activity of two of the compounds from within the scope of the invention is evident from the results obtained in this test. The experiment concerned pre-emergence applications on soil. The containers used were 25 cm diameter plastic pots filled with Fallsington silt loam. One set of pots was planted to weeds, the seeds of which were uniformly mixed with the top 1.2 cm layer of soil. The species selected were: johnsongrass (Sorghum halepense), barnyardgrass (Echinochloa crusgalli), crabgrass (Digitaria sanguinalis), giant foxtail (Setaria faberii), velvetleaf (Abutilon theophrasti), jimsonweed (Datura stramonium), mustard (Brassica arvensis), and pigweed (Amaranthus retroflexus). Another set of pots were planted to the following crops with from one to four species per pot: corn (planting depth 3.7 cm), cotton, soybeans, sunflower, Clinton oats, wheat, Black Valentine beans, rice, sorghum, peas, flax, and peanuts (all at 2.5 cm depth), cucumbers, cabbage, alfalfa, safflower, sugarbeets, tomato, spinach, barley, and Kentucky bluegrass (all at 1.2 cm depth). Immediately after planting, the test chemical was applied to the soil surfaces dissolved in a non-phytotoxic solvent. One pot from the weed phase and one of each of the crop species were left untreated for the purpose of comparison. The treated and untreated pots were promptly watered with approximatley 4 mm of simultated rainfall and then held in a greenhouse for several weeks. Visual weed and crop response ratings were made 28 days after treatment utilizing the rating system as described above for Test A. The data are given in Table C.
# [4] = tested on: Corn; assay: Test F over-the-top soil/foliage treatment; assay type: in vivo; details: soil/foliage spray; 0.06 kg/ha; ~14 days
# Procedure: as §1, §2
# [5] = tested on: Soybeans; assay: Test F over-the-top soil/foliage treatment; assay type: in vivo; details: soil/foliage spray; 0.06 kg/ha; ~14 days
# Procedure: as §1, §2
# [6] = tested on: Rice; assay: Test F over-the-top soil/foliage treatment; assay type: in vivo; details: soil/foliage spray; 0.06 kg/ha; ~14 days
# Procedure: as §1, §2
# [7] = tested on: Barnyardgrass; assay: Test F over-the-top soil/foliage treatment; assay type: in vivo, Echinochloa crusgalli; design: scale not given here; details: soil/foliage spray; 0.06 kg/ha; ~14 days
# Procedure: as §1, §2
# [8] = tested on: Barnyardgrass; assay: Test B pre-emergence on Fallsington silt loam; assay type: in vivo, Echinochloa crusgalli; details: 0.12 kg/ha, 28 days
# Excerpt: as §3, §4
# [9] = tested on: Wheat; assay: Test F over-the-top soil/foliage treatment; assay type: in vivo, wheet; design: scale not given here; details: soil/foliage spray, ~14 days
# Procedure: as §1, §2
# [10] = tested on: Jimsonweed; assay: Test F over-the-top soil/foliage treatment; assay type: in vivo, Datura stramonium; details: soil/foliage spray; 0.06 kg/ha; ~14 days
# Procedure: as §1, §2
# [11] = tested on: Wild Oats; assay: Test F over-the-top soil/foliage treatment; assay type: in vivo, Avena fatua; design: scale not given here; details: soil/foliage spray; 0.06 kg/ha; ~14 days
# Procedure: as §1, §2
# [12] = tested on: Nutsedge; assay: Test B pre-emergence on Fallsington silt loam; assay type: in vivo, Cyperus rotundus; details: 0.03 kg/ha, 28 days
# Excerpt: as §3, §4
# [13] = tested on: Crabgrass; assay: Test F over-the-top soil/foliage treatment; assay type: in vivo, Digitaria spp.; design: scale not given here; details: soil/foliage spray; 0.06 kg/ha; ~14 days
# Procedure: as §1, §2
# [14] = tested on: Mustard; assay: Test B pre-emergence on Fallsington silt loam; assay type: in vivo, Brassica arvensis; details: 28 days
# Excerpt: as §3, §4
# [15] = tested on: Ky. bluegrass; assay: Test B pre-emergence on Fallsington silt loam; assay type: in vivo, Kentucky bluegrass; design: scale not given here; details: 0.12 kg/ha, 28 days
# Excerpt: as §3, §4
# [16] = tested on: Cocklebur; assay: Test B pre-emergence on Fallsington silt loam; assay type: in vivo, Xanthium pensylvanicum; details: 28 days
# Excerpt: as §3, §4
# [17] = tested on: Nutsedge; assay: Test F over-the-top soil/foliage treatment; assay type: in vivo, Cyperus rotundus; design: scale not given here; details: soil/foliage spray, ~14 days
# Procedure: as §1, §2
# [18] = tested on: Velvetleaf; assay: Test F over-the-top soil/foliage treatment; assay type: in vivo, Abutilon theophrasti; details: soil/foliage spray; 0.015 kg/ha; ~14 days
# Procedure: as §1, §2
# [19] = tested on: Sorghum; assay: Test B pre-emergence on Fallsington silt loam; assay type: in vivo; details: 0.03 kg/ha, 28 days
# Excerpt: as §3, §4
# [20] = tested on: Alfalfa; assay: Test F over-the-top soil/foliage treatment; assay type: in vivo; design: scale not given here; details: soil/foliage spray, ~14 days
# Procedure: as §1, §2
# [21] = tested on: Sorghum; assay: Test F over-the-top soil/foliage treatment; assay type: in vivo; design: scale not given here; details: soil/foliage spray; 0.06 kg/ha; ~14 days
# Procedure: as §1, §2
# [22] = tested on: Giant Foxtail; assay: Test F over-the-top soil/foliage treatment; assay type: in vivo, Setaria faberii; design: scale not given here; details: soil/foliage spray; 0.06 kg/ha; ~14 days
# Procedure: as §1, §2
# [23] = tested on: Johnsongrass; assay: Test B pre-emergence on Fallsington silt loam; assay type: in vivo, Sorghum halepense; design: scale not given here; details: 0.12 kg/ha, 28 days
# Excerpt: as §3, §4
# [24] = tested on: Sesbania; assay: Test F over-the-top soil/foliage treatment; assay type: in vivo, Sesbania exaltata; design: scale not given here; details: soil/foliage spray, ~14 days
# Procedure: as §1, §2
# [25] = tested on: Morningglory; assay: Test B pre-emergence on Fallsington silt loam; assay type: in vivo, Ipomoea hederacea; details: 0.03 kg/ha, 28 days
# Excerpt: as §3, §4
# [26] = tested on: Wheat; assay: Test B pre-emergence on Fallsington silt loam; assay type: in vivo; design: scale not given here; details: 0.03 kg/ha, 28 days
# Excerpt: as §3, §4
# [27] = tested on: Corn; assay: Test B pre-emergence on Fallsington silt loam; assay type: in vivo; design: scale not given here; details: 0.12 kg/ha, 28 days
# Excerpt: as §3, §4
# [28] = tested on: Sugarbeets; assay: Test B pre-emergence on Fallsington silt loam; assay type: in vivo; design: scale not given here; details: 28 days
# Excerpt: as §3, §4
# [29] = tested on: Giant Foxtail; assay: Test B pre-emergence on Fallsington silt loam; assay type: in vivo, Setaria faberii; details: 0.12 kg/ha, 28 days
# Excerpt: as §3, §4
smiles,measurement,setting,value
"COc1cc(C)nc(NC(=O)NS(=O)(=O)c2ccccc2OS(C)(=O)=O)n1 [Compound 2, 2-Hydroxy-N-[(4-methoxy-6-methylpyrimidin-2-yl)aminocarbonyl]benzenesulfonamide, methanesulfonate]",Morningglory response rating,[1],10C
same,Pigweed response rating,[2],7G
same,Wheat response rating,[3],5G
same,Corn response rating,[4],10C
same,Soybeans response rating,[5],9C
same,Rice response rating,[6],10C
same,Barnyardgrass response rating,[7],10C
same,Barnyardgrass response rating,[8],10C
same,Wheat response rating,[9]; 0.015 kg/ha,1C
same,Wheat response rating,[9]; 0.06 kg/ha,9C
same,Jimsonweed response rating,[10],10C
same,Wild Oats response rating,[11],10C
same,Nutsedge response rating,[12],6G
same,Crabgrass response rating,[13],10C
same,Mustard response rating,[14]; 0.03 kg/ha,10C
same,Mustard response rating,[14]; 0.12 kg/ha,10C
same,Ky. bluegrass response rating,[15],10C
same,Cocklebur response rating,[16]; 0.03 kg/ha,5G
same,Cocklebur response rating,[16]; 0.12 kg/ha,10C
same,Nutsedge response rating,[17]; 0.015 kg/ha,2C
same,Nutsedge response rating,[17]; 0.06 kg/ha,10C
same,Velvetleaf response rating,[18],5G
same,Sorghum response rating,[19],10C
same,Alfalfa response rating,[20]; 0.015 kg/ha,7C
same,Alfalfa response rating,[20]; 0.06 kg/ha,10C
same,Sorghum response rating,[21],10C
same,Giant Foxtail response rating,[22],10C
same,Johnsongrass response rating,[23],10C
same,Sesbania response rating,[24]; 0.015 kg/ha,9C
same,Sesbania response rating,[24]; 0.06 kg/ha,10C
same,Morningglory response rating,[25],7G
same,Wheat response rating,[26],5G
same,Corn response rating,[27],10C
same,Sugarbeets response rating,[28]; 0.03 kg/ha,10C
same,Sugarbeets response rating,[28]; 0.12 kg/ha,10C
same,Giant Foxtail response rating,[29],10C
